Data from patent US20130023550A1, “PHARMACEUTICAL COMPOSITIONS AND METHODS OF MAKING SAME” (GLAXO WELLCOME MANUFACTURING PTE, LTD, priority 2010, published 2013).
Converted amounts (≈) assume the structure as drawn. Read-outs that look alike come from different tables or passages of the source.

Assays:
Assay type in all cases: physicochemical
[1] = Osmolality contribution of Captisol
[2] = Binding constant Kb by fluorescence titration
Excerpt: The binding constant between a drug substance and complexing agent can be determined using spectroscopic techniques as outlined by Connors and references therein (Kenneth A. Connors: “Binding Constants”, Wiley-Interscience; 1. edition (April 1987)).
The simplified equilibrium for complexation between pazopanib (034 in Equation 1 shown below) drug substance and13-cyclodextrin sulfobutylether (e.g., Captisol® from Cydex Pharmaceuticals, Inc., Lenexa, Kans.) has been shown as Equation 1, where Kd is the dissociation constant and Kb is the binding constant, 034(s) is solid precipitate for pazopanib, 034(aq) is the aqueous concentration of unbound pazopanib (free state without complexation), Captisol(aq) is the difference between the initial Captisol concentration and the concentration of Captisol in the complexed state with drug substance and pazopanib. […] is the concentration of the complex between pazopanib and 034·Captisol (complexed state).
A titration experiment is performed using pazopanib (approximately 0.05 mg/ml, 10^-4M) solution by varying the concentration of β-cyclodextrin sulfobutylether solution and measuring the fluorescence intensity (excitation at 342 nm, emission at 375 nm) of the resulting solutions. Initial Captisol concentration are chosen to describe the entire titration curve appropriately and to prevent nucleation and precipitation of pazopanib in the solution. […]
The measured Fluorescence intensity is directly related to the concentration of the complexed state 034·Captisol(aq) since uncomplexed pazopanib 034(aq) and Captisol Captisol(aq) have negligible fluorescence yield. The measured fluorescence intensities are fitted using a non-linear simplex fitting routine to determine the value of the binding constant Kb. The Fluorescence intensities are plotted as a function of β-cyclodextrin sulfobutylether concentration according to Benesi and Hildebrandt to determine the binding stoichiometry. […]
Varian Cary Eclipse Fluorescence spectrometer (SN: EL05043801) with a lcm cuvette and orthogonal detection geometry or equivalent. […]

[3] = Solubility of pazopanib as a function of pH in phosphate buffer; conditions: for solubility at 5 days: phosphate buffer, 25 °C, thermodynamic from solid
Procedure: • 1) Prep 25 mM phosphate buffer (using monobasic Sodium Phosphate, monohydrate), adjust the buffer solution to different target pH using 1N NaOH/HCl. • 2) Add excessive pazopanib free base to the above solutions (˜20 mg free base per 10 mL buffer solution), vortex the solutions, and mix well. […] Equilibrate the solutions for 5 days with agitation. • 4) After 5 days, measure the pH of the solubility solution immediately, and record the pH, and filter the solution into a test tube using a 0.22um PVDF filter. • 5) Dilute the solution by 1:1 (v/v) with 50:50:0.1 water:acetonitrile:TFA (v/v/v) diluent, and mix well. • 6) The solubility of the solutions is analyzed by HPLC at the detection wavelength of 268 nm.
Mobile Phase A: 100:0.1 (v/v) Water:TFA Mobile Phase B: 100:0.1 (v/v) Acetonitrile:TFA Column: Phenomenex Develosil RPAqueous-3, C-30, 3 um, 150 mm×4.6 mm Column temperature: 35° C. Flow rate: Isocratic at 1.0 mL/min, A/B=60/40 Detector wavelength: 268 nm Injection volume: 10 μ L Total run time: 4 minutes

[4] = Calculation of cyclodextrin utility number UCD; conditions: for K: conservative value used for UCD calculations
Excerpt: The cyclodextrin utility number, UCD, is a dimensionless number used to assess the feasibility of using cyclodextrin in dosage forms. UCD is a lumped parameter consisting of the dose of the drug, the workable amount of CD, the binding constant, and the drug solubility in the absence of CDs. UCD can be used to predict the solubility of ionizable drugs showing a synergistic increase in solubility due to ionization and complexation. See, Rao, V. M., Stella, V. J., J Pharm Sci, 92, 5 927, May 2003. UCD is calculated using the following equation:
UCD=(KSo/1+KSo)(MCD/MD)(MWD/MWCD)
where, mD is dose of drug; mCD is dose of cyclodextrin; MWD is molecular weight drug; MWCD is molecular weight cyclodextrin; and Ko is binding constant.
UCD=(KSo/1+KSo)(mCD/mD)(MWD/MWCD)
Binding constant, K, as described in Example 4 above.
Solubility, So, as described in Example 5 above. from Rao, V. M., Stella, V. J., J Pharm Sci, 92, 5 927, May 2003.

Compound: β-cyclodextrin sulfobutylether [Captisol]
- Osmolality (mOsm) ([1]; Captisol 2 % (w/v)): 20 mOsm
- Osmolality (mOsm) ([1]; Captisol 3 % (w/v)): 50 mOsm
- Osmolality (mOsm) ([1]; Captisol 4 % (w/v)): 80 mOsm
- Osmolality (mOsm) ([1]; Captisol 5 % (w/v)): 110 mOsm
- Osmolality (mOsm) ([1]; Captisol 6 % (w/v)): 140 mOsm
- Osmolality (mOsm) ([1]; Captisol 7 % (w/v)): 170 mOsm
- Osmolality (mOsm) ([1]; Captisol 8 % (w/v)): 201 mOsm
- Osmolality (mOsm) ([1]; Captisol 9 % (w/v)): 231 mOsm
- Osmolality (mOsm) ([1]; Captisol 10 % (w/v)): 261 mOsm
- Osmolality (mOsm) ([1]; Captisol 11 % (w/v)): 291 mOsm
- Osmolality (mOsm) ([1]; Captisol 12 % (w/v)): 321 mOsm
- Osmolality (mOsm) ([1]; Captisol 13 % (w/v)): 351 mOsm

Compound: Cc1ccc(Nc2nccc(N(C)c3ccc4c(C)n(C)nc4c3)n2)cc1S(N)(=O)=O [pazopanib]
- binding constant, Kb ([2]; pH of 4, temperature of 40° C.): 9763 mol⁻¹
- binding constant, Kb ([2]; pH of 5, temperature of 25° C.): 9130 mol⁻¹
- binding constant of pazopanib, K ([2]; with modified cyclodextrin such as Captisol): approximately 10,000
- So ([3]; pH 3.5): 4.57e-05 mol/L
- solubility in phosphate buffer ([3]; pH 3.5, 25° C.): ~20 µg/mL (≈ 45.7 µM)
- So ([3]; pH 4.0): 2.38e-06 mol/L
- solubility in phosphate buffer ([3]; pH 4.0, 25° C.): ~1.043 µg/mL (≈ 2.38 µM)
- solubility in phosphate buffer (molar value) ([3]; pH 4.0, 25° C.): ~2.38×10^−6
- solubility in phosphate buffer ([3]; pH 4.25, 25° C.): ~0.534 µg/mL (≈ 1.22 µM)
- solubility, So ([3]; pH 4.25, 25° C.): ~1.22 µM (≈ 0.534 µg/mL)
- solubility in phosphate buffer ([3]; pH 4.5, 25° C.): ~0.025 µg/mL (≈ 0.0571 µM)
- solubility, So ([3]; pH 4.5, 25° C.): ~0.0571 µM (≈ 0.025 µg/mL)
- solubility, So ([3]; pH 5.0, 25° C.): 0.0137 µM (≈ 0.00599 µg/mL)
- solubility at 5 days ([3]; pH 3.5, aqueous buffer, pH 3.5, 25° C., read-out: solubility in phosphate buffer): 20 µg/mL
- solubility at 5 days ([3]; pH 3.5, aqueous buffer, pH 3.5, 25° C., read-out: solubility in phosphate buffer (molar value)): 45.7 µM
- solubility at 5 days ([3]; pH 4, aqueous buffer, pH 4.0, 25° C., read-out: solubility in phosphate buffer): 1.04 µg/mL
- solubility at 5 days ([3]; pH 4, aqueous buffer, pH 4.0, 25° C., read-out: solubility in phosphate buffer (molar value)): 2.38 µM
- solubility at 5 days ([3]; pH 4.25, aqueous buffer, pH 4.25, 25° C., read-out: solubility in phosphate buffer): 0.534 µg/mL
- solubility at 5 days ([3]; pH 4.25, aqueous buffer, pH 4.25, 25° C., read-out: solubility, So): 1.22 µM
- solubility at 5 days ([3]; pH 4.5, aqueous buffer, pH 4.5, 25° C., read-out: solubility in phosphate buffer): 0.025 µg/mL
- solubility at 5 days ([3]; pH 4.5, aqueous buffer, pH 4.5, 25° C., read-out: solubility, So): 0.0571 µM
- (KSo)/(1 + KSo) ([4]; pH 3.5): 0.314
- K ([4]; pH 3.5): 10000 L/mol
- (KSo)/(1 + KSo) ([4]; pH 4.0): 0.023
- K ([4]; pH 4.0): 10000 L/mol
- (KSo)/(1 + KSo) ([4]; pH 4.25): 0.012
- K ([4]; pH 4.25): 10000 L/mol
- (KSo)/(1 + KSo) ([4]; pH 4.5): 0.0006
- K ([4]; pH 4.5): 10000 L/mol
- (KSo)/(1 + KSo) ([4]; pH 5.0): 0.0001
- K ([4]; pH 5.0): 10000 L/mol
